# Measurements published in the supplement of paper PMC10307832.
# Legend:
# Experiment in all cases: relative viability (nuclei count vs DMSO), 5 days (fraction); higher = more cells survive
# A549 = tested on: A549
# Procedure, shortened: (§1)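 Values are medians from duplicate plates. Each reflects relative viability, defined as the nuclei count of treated wells over that of vehicle wells. Lung cancer cell lines in 1536-well plates were pin-tool dosed one day after seeding with one drug alone or with a fixed anchor-drug dose plus five library-drug doses (not always all listed) in √10 steps, then fixed, stained and imaged at 4× after 5 days.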
# Calu-6 = tested on: Calu-6
# Procedure, shortened: as §1
# EBC-1 = tested on: EBC-1
# Procedure, shortened: as §1
# HCC-15 = tested on: HCC-15
# Procedure, shortened: as §1
# IA-LM = tested on: IA-LM
# Procedure, shortened: as §1
# LCLC-103H = tested on: LCLC-103H
# Procedure, shortened: as §1
# NCI-H1299 = tested on: NCI-H1299
# Procedure, shortened: as §1
# NCI-H1703 = tested on: NCI-H1703
# Procedure, shortened: as §1
# UMC-11 = tested on: UMC-11
# Procedure, shortened: as §1
Structure (SMILES),relative viability (A549; first compound 0.04 µM),relative viability (A549; first compound 0.1265 µM),relative viability (A549; first compound 0.4 µM),relative viability (A549; first compound 1.265 µM),relative viability (Calu-6; first compound 0.04 µM),relative viability (Calu-6; first compound 0.1265 µM),relative viability (Calu-6; first compound 0.4 µM),relative viability (Calu-6; first compound 1.265 µM),relative viability (EBC-1; first compound 0.04 µM),relative viability (EBC-1; first compound 0.1265 µM),relative viability (EBC-1; first compound 0.4 µM),relative viability (EBC-1; first compound 1.265 µM),relative viability (HCC-15; first compound 0.04 µM),relative viability (HCC-15; first compound 0.1265 µM),relative viability (HCC-15; first compound 0.4 µM),relative viability (HCC-15; first compound 1.265 µM),relative viability (IA-LM; first compound 0.04 µM),relative viability (IA-LM; first compound 0.1265 µM),relative viability (IA-LM; first compound 0.4 µM),relative viability (IA-LM; first compound 1.265 µM),relative viability (LCLC-103H; first compound 0.04 µM),relative viability (LCLC-103H; first compound 0.1265 µM),relative viability (LCLC-103H; first compound 0.4 µM),relative viability (LCLC-103H; first compound 1.265 µM),relative viability (NCI-H1299; first compound 0.04 µM),relative viability (NCI-H1299; first compound 0.1265 µM),relative viability (NCI-H1299; first compound 0.4 µM),relative viability (NCI-H1299; first compound 1.265 µM),relative viability (NCI-H1703; first compound 0.04 µM),relative viability (NCI-H1703; first compound 0.1265 µM),relative viability (NCI-H1703; first compound 0.4 µM),relative viability (NCI-H1703; first compound 1.265 µM),relative viability (UMC-11; first compound 0.04 µM),relative viability (UMC-11; first compound 0.1265 µM),relative viability (UMC-11; first compound 0.4 µM),relative viability (UMC-11; first compound 1.265 µM)
O=C(O)c1ccc(-c2c[nH]c3ncc(-c4ccccc4)cc23)cc1C1CCCC1 + CS(=O)(=O)N1CCN(Cc2cc3nc(-c4cccc5[nH]ncc45)nc(N4CCOCC4)c3s2)CC1 [Pictilisib] (partner 1 µM),0.508,0.537,0.504,0.291,0.896,1.05,0.822,0.667,0.43,0.371,0.345,0.327,0.736,0.839,0.755,0.514,0.437,0.363,0.344,0.402,0.631,0.693,0.57,0.632,0.832,0.809,0.69,0.584,0.262,0.298,0.272,0.224,0.827,0.937,0.853,0.775
O=C(O)c1ccc(-c2c[nH]c3ncc(-c4ccccc4)cc23)cc1C1CCCC1 + C[C@@H](Oc1cc(-c2cnn(C3CCNCC3)c2)cnc1N)c1c(Cl)ccc(F)c1Cl [Crizotinib] (partner 1 µM),0.795,0.776,0.668,0.44,0.828,0.777,0.72,0.636,0.185,0.217,0.185,0.191,0.845,0.79,0.633,0.339,0.698,0.772,0.893,0.835,0.997,1.05,1.03,1.04,0.966,0.952,0.916,0.868,0.482,0.85,0.669,0.647,0.587,0.629,0.646,0.612
O=C(O)c1ccc(-c2c[nH]c3ncc(-c4ccccc4)cc23)cc1C1CCCC1 + C[C@]1(O)C[C@@H](c2nc(-c3ccc4ccc(-c5ccccc5)nc4c3)c3c(N)nccn32)C1 [Linsitinib] (partner 1 µM),0.622,0.719,0.717,0.505,0.86,1.17,0.892,0.781,0.862,0.903,0.956,0.697,0.869,0.928,0.785,0.567,0.558,0.685,0.712,0.513,1.04,1.04,1.17,1.08,0.933,1.02,1.04,0.918,0.647,1.06,1.06,0.898,0.98,1.04,1.07,0.971
